{"source": "patent US20060153925A1", "about": "“Novel solid pharmaceutical composition comprising amisulpride” (Sanofi-Aventis, priority 2003, published 2006)", "origin": "cited, not measured here", "details": "administered orally; attributed to partial gastrointestinal absorption", "data": [{"compound": "CCN1CCCC1CNC(=O)c1cc(S(=O)(=O)CC)c(N)cc1OC", "note": "(racemic) [amisulpride, 4-amino-N-[(1-ethyl-2-pyrrolidin-yl)methyl]-5-(ethylsulfonyl)-2-methoxybenzamide]", "values": [{"measurement": "bioavailability", "value": "about 48%"}]}]}
